Format in all cases: in vivo, Drosophila melanogaster
For test [1], the system named is FS (dFMR1-3+frame shifted rescue fragment) flies. The test is described as follows: Naive courtship behavior (courtship index toward virgin female), FS flies. The conditions noted are these: for naive courtship: MPEP 20 μg/ml, LY341495 400 nM in food. The source says:
(§1) Learning and memory (cognitive abilities) can be examined in Drosophila by utilizing several available learning and memory paradigms. The most popular is a classical conditioning paradigm in which the flies learn to associate electric shocks with olfactory cues (Dudia et al, 1976; Davis, 1993; Tully, 1994). An alternative paradigm to study learning and memory in Drosophila is called conditioned courtship, wherein a male fly learns to modify his courtship behavior after experience with an unreceptive female; it is a multi-sensory paradigm involving associations from more then one sensory input (Siegel and Hall, 1979; for review see Hall, 1994). It is a more complex associative learning paradigm and was utilized to assay learning and memory in this article to elucidate the role of dFMR1 in learning and memory (Tompkins et al, 1980; Tompkins et al, 1982; Tompkins et al, 1983; Tompkins et al, 1984; Ackerman and Siegel, 1986). Courting male flies perform a characteristic sequence of behaviors: orienting toward and following the female, tapping her with his forelegs, vibrating one or both wings, licking her genitalia, and attempting copulation (Sturtevant, 1915; Bastock and Manning, 1955; Bastock, 1956). These behaviors are repeated with some variation until successful copulation occurs. Virgin females will generally respond by mating; however, recently mated females will be unreceptive and will not allow copulation to occur (Spieth, 1974), they display different behaviors (Bastock and Manning, 1955; Connolly and Cook, 1973) and have an altered, although somewhat overlapping, pheromonal profile (Cobb and Ferveur, 1996). The naive male will find a previously mated female to have a pheromonal repertoire that is less provocative then that of a virgin female target. A naive male paired with a mated female will initially court her, but his courtship activity soon decreases; after 1 hour of experience with the mated female, his courtship when subsequently paired with a virgin female remains depressed for 2-3 hours (Siegel and Hall, 1979). This effect is not a general suppression of all courtship activity since a male's tendency to court an immature male is not suppressed (Gailey et al, 1984). […] These behaviors are quantified as a courtship index (CI) which is defined as the percentage of time a male fly spends performing any of the six courtship steps toward a target female in a ten minute test period. A decrease in CI after training with a previously mated female is indicative of behavioral plasticity in the form of learning or memory.
Since we use female targets that are not etherized (therefore they are freely moving), and the w118 and dfmr1-3 flies may have slightly impaired visual acuity due to lack of eye pigmentation, and since visual inputs affect courtship behavior, all subsequent experiments were done utilizing only the genotypes Rescue: dfmr1-3+wild type rescue fragment, and FS: dfmr1-3+frame shifted rescue fragment. Both of these genotypes have more pigmentation and similar levels of eye pigmentation to each other. For FIGS. 4 and 5, a high concentration of MPEP (1,000 μg/ml) was used. For the remainder of the experiments the food was either control (CT) or exactly the same control food containing the appropriate concentration of MPEP (M). The position of the CT and the M are indicative of the point at which the group was on the particular food. The first letter indicates the food type that the larvae grew up on, and the second letter denotes the food type that the adult flies were placed on within four hours of eclosion, […] fresh food.
Naive males were placed in the training chamber for one hour with no female, and then placed with a virgin target female for a ten-minute interval. The naive courtship behavior was reduced by high MPEP concentration in Rescue (p<0.0001) and FS (p<0.0005) lines, and it was depressed to similar levels by high MPEP treatment in the Rescue and FS groups (FIG. 2A). […]

In test [2] the test system is Rescue (dFMR1-3+wild type rescue fragment) flies. The test is described as follows: Naive courtship behavior (courtship index toward virgin female), Rescue flies. The conditions noted are these: for naive courtship: MPEP 20 μg/ml, LY341495 400 nM in food.
Description: as §1
Since we use female targets that are not etherized (therefore they are freely moving), and the w118 and dfmr1-3 flies may have slightly impaired visual acuity due to lack of eye pigmentation, and since visual inputs affect courtship behavior, all subsequent experiments were done utilizing only the genotypes Rescue: dfmr1-3+wild type rescue fragment, and FS: dfmr1-3+frame shifted rescue fragment. Both of these genotypes have more pigmentation and similar levels of eye pigmentation to each other. For FIGS. 4 and 5, a high concentration of MPEP (1,000 μg/ml) was used. For the remainder of the experiments the food was either control (CT) or exactly the same control food containing the appropriate concentration of MPEP (M). The position of the CT and the M are indicative of the point at which the group was on the particular food. The first letter indicates the food type that the larvae grew up on, and the second letter denotes the food type that the adult flies were placed on within four hours of eclosion, and for the four following days, until the day before testing when they were placed on fresh food.
In order to determine if MPEP can get into the Drosophila central nervous system (CNS) through feeding behavior, we mixed MPEP into the food at a concentration of 1,000 μg/ml ([…]). Males were raised on CT food and then placed on either CT or M food. […]

For another test, the system named is Rescue flies. The test is described as follows: Short-term memory (60 mins) with mated female targets, Rescue flies. The conditions noted are these: for short-term memory, mated female target: 86 μM MPEP, 400 nM LY341495, 573 μM MPPG, 348 μM MTPG; for memory at 60 minutes post training, mated female target: 5 day old, 8.6 mM MPEP, 400 nM LY341495. Here is the method:
Effects of drug treatment on short-term memory (60 mins) in flies lacking dfmr1 activity with mated female targets. Short-term (60 min.) memory was measured in Rescue and FS flies that were either fed control food or underwent various drug treatments as described below. Short-term memory was measured by placing a trained male in a holding chamber for 60 minutes (after being trained for one hour with a previously mated female), then subsequently placing him in a testing chamber with a mated female target for a ten-minute courtship interval (C.I.). This C.I. was compared to the C.I. obtained for naïve courtship of a previously mated female, i.e., C.I. during the first 10 minutes of the training session with a previously mated female. Additionally, for reference the C.I. during the last 10 minutes of the training period was also determined. Numbers of flies are indicated above each bar for all groups. The levels of significance are indicated as follows; *=p<0.05; **=p<0.005; ***=p<0.0001.
Restoration of short-term memory with mGluR antagonists. To establish that the failure to observe memory was not due to a problem with recognizing or processing the appropriate cues from the virgin female target, we used a modified version of the conditioned courtship paradigm where the male is paired with a mated female target subsequent to training (Kane et al., 1997; Joiner and Griffith, 1997; Joiner and Griffith, 1999; Kamashev et al., 1999). Again, with pharmacologic treatment it is necessary to utilize more then one compound to confirm the specificity of the target, so in this case we used four mGluR antagonists. […] It is also important to note that the robust deficit in synaptic plasticity in FS flies, with regard to memory, is a critical extension of the previous models of Fragile X syndrome in model organisms, since this is one of the most prominent aspects of the human disorder. Furthermore, we have shown that antagonism of the mGluRs can restore synaptic plasticity in the Drosophila model of Fragile X syndrome.

The mark [3] stands for this setting: 5 day old, MPEP 200 μg/ml (86.6 μM) in development, with or without adulthood (M-M, M-CT).
Setting [4] is: 5 day old, MPEP 1,000 μg/ml (433.0 μM) in food in adulthood (CT-M).

The values that follow come from patent publication US20080187492A1, “Drosophila Models For Diseases Affecting Learning and Memory” (priority 2004, published 2008).

For the compound `CC(N)(C(=O)O)c1ccc(-c2nnn[nH]2)cc1` (racemic) [MTPG, (RS)-α-methyl-4-tetrazolylphenylglycine], in test [1] (5 day old adults, 573 mM MPPG (p<0.0001) or 348 μM MTPG (p<0.005)), the naive courtship activity result is listed as “significant increase in courtship activity”. For the same compound, in test [2] (5 day old adults, 573 mM MPPG or 348 μM MTPG, p<0.0001 for both), the naive courtship activity result is “significant decrease in courtship activity”. In the test on Rescue flies, the “short-term memory, mated female target” value is given as “demonstrated intact short-term memory” and the “memory at 60 minutes post training, mated female target” value (“memory at 60 minutes post training” for short) is “demonstrate memory at 60 minutes post training”.

For the compound `N[C@](CC1c2ccccc2Oc2ccccc21)(C(=O)O)[C@H]1C[C@@H]1C(=O)O` [LY341495, (2S)-2-amino-2-[(1S,2S)-2-carboxycycloprop-1-yl]-3-(xanth-9-yl) propionic acid], the naive courtship entry is reported as “significantly increased naive courtship” in test [1] (5 day old) and “suppressed naive courtship” in test [2] (5 day old). In addition, the “short-term memory, mated female target” value in the test with Rescue flies is listed as “demonstrated intact short-term memory”. The “memory at 60 minutes post training” value with Rescue flies is “demonstrate memory at 60 minutes post training”.

For `Cc1cccc(C#Cc2ccccc2)n1` [MPEP, 2-methyl-6-(phenylethynyl)pyridine], the naive courtship activity entry is “significant increase in courtship activity” in test [1] (20-day-old, MPEP (86.6 μM) in adulthood only (CT-M)); “significant increase in courtship activity” in test [1] (20-day-old, MPEP (86.6 μM) in development and adulthood (M-M)); “did not demonstrate an increase in naive courtship activity” in test [1] (20-day-old, MPEP (86.6 μM) in development only (M-CT)); “courtship levels similar to CT-CT Rescue flies” in test [1] (setting [3]); “significant increase in courtship activity” in test [1] (5 day old, MPEP 200 μg/ml (86.6 μM) in food in adulthood only (CT-M), p<0.005); “depressed relative to CT-CT Rescue flies” in test [2] (5 day old, MPEP 200 μg/ml (86.6 μM) in adulthood only (CT-M), p<0.0001). The naive courtship activity result in test [2] (setting [3]) is listed as “courted as vigorously as CT-CT Rescues flies”. The naive courtship entry in test [1] (5 day old) is “significantly increased naive courtship”; in test [2] (5 day old) it was “suppressed naive courtship”. Also, the naive courtship behavior result in test [1] (setting [4]) and in test [2] (setting [4]) was “reduced” in each case. The “short-term memory, mated female target” value in the test on Rescue flies is listed as “demonstrated intact short-term memory”. Moreover, in the test on Rescue flies, the “memory at 60 minutes post training” value is recorded as “demonstrate memory at 60 minutes post training”.
